Reference: paper PMC12673918, “Design, Synthesis, and Selective Antiproliferative Activity of Indolizine Derivatives as Microtubule Destabilizers” (Archiv Der Pharmazie, 2025)
Where two headings read alike, the source gives them in different places.

Columns and labels:
CAL‐27 (oral carcinoma) = test: Resazurin cell viability assay, CAL‐27; format: cell-based; details: Homo sapiens, CAL-27
Procedure: (§1) The tongue squamous cell carcinoma cell line CAL‐27 (ATCC CRL‐2095), breast carcinoma BT‐20 (ATCC HTB‐19), gastric carcinoma HGC‐27 (BCRJ Code 0310), and normal oral fibroblast OHMF (culture of fibroblasts derived from human oral healthy mucosa, approved by the Research Ethics Committee of the University of São Paulo, Campus of Ribeirão Preto, Brazil (with protocol number 049) were cultured in DMEM medium (DMEM, Sigma‐Aldrich, St. Louis, MO, USA) supplemented with 10% fetal bovine serum and a solution of penicillin (100 U/mL) and streptomycin (100 μg/mL). The cultures were maintained in a humidified incubator with 5% CO₂ at 37°C.
(§2) Cell viability was analyzed using the resazurin assay. For this, cells were seeded in 96‐well plates (1 × 10^3 cells per well) and incubated at 37°C with 5% CO₂ overnight for cell adhesion. Subsequently, the cells were treated with different compounds (0–50 µM) for 72 h. After treatment, the medium was replaced with phenol‐free DMEM medium (Sigma‐Aldrich) containing resazurin at a concentration of 44 µM (Sigma‐Aldrich). After incubation for 4 h at 37°C, fluorescence detection was performed (excitation 530/25 nm, emission 590/35 nm) using a microplate fluorimeter (Synergy 2, Biotek). Initial cell growth inhibition assays were performed in triplicate or quadruplicate, while IC50 determinations were conducted in triplicate. Data were plotted, and IC₅₀ values were determined by nonlinear regression using GraphPad Prism software 9.0.
(§3) ^a Cell viability was assessed using the resazurin assay after 72 hours of compound treatment. Fluorescence was measured to estimate % of cellular growth inhibition at 50 µM values, based on triplicate experiments.
(§4) ^b IC50 values were determined using the same resazurin-based assay, with fluorescence measurements performed after 72 hours of treatment. These experiments were carried out in triplicate.

BT‐20 (breast carcinoma) = test: Resazurin cell viability assay, BT‐20; format: cell-based; details: Homo sapiens, BT-20
Procedure: as §1, §2, §3, §4

[1] = test system: HGC‐27 (gastric carcinoma); test: Resazurin cell viability assay, HGC‐27; format: cell-based; details: Homo sapiens, HGC-27
Procedure: as §1, §2, §3, §4

tubulin [2] = test: Tubulin polymerization (inhibition) assay kit; format: biochemical; details: for IC50: n = 2
Procedure: To evaluate the effect of the compounds on tubulin polymerization, the Tubulin Polymerization Assay Kit (Cytoskeleton Inc.) was used according to the manufacturer's instructions. Briefly, 5 µL of the compounds (final concentration ranging from 0.1 to 100 µM) were pipetted per well into a pre‐warmed 96‐well black‐bottom plate at 37°C. After 1 min, 55 µL of the tubulin reaction mix (1X Buffer 1, 0.7X Tubulin Glycerol Buffer, 1 mM GTP, and 2 mg/mL tubulin) was added to each well. Next, after 5 s of shaking, fluorescence detection (excitation: 340–360 nm, emission: 410–460 nm) was performed using a microplate fluorimeter. […] Data were plotted, and IC₅₀ values were determined by nonlinear regression using GraphPad Prism software 9.0.
^c Tubulin polymerization was evaluated using a commercial assay kit, following standard procedures. Compounds were incubated with tubulin, and fluorescence was measured over time to generate kinetic curves and determine the maximum polymerization rate (Vmax). These experiments were carried out in duplicate.

tubulin [3] = test system: tubulin; design: method as in PMID 37895970; details: read-out: IC50 for tubulin destabilization (literature); cited from earlier work
[4] = test system: OHMF (non‐tumoral oral fibroblast); test: Resazurin cell viability assay, OHMF fibroblasts; format: cell-based; details: Homo sapiens, 72 h, n = 3
Procedure: as §1, §2

[5] = test system: BT‐20 breast cancer cells; test: Cell‐cycle assay by flow cytometry; format: cell-based; details: 2.5 µM, 24 h
Procedure: BT‐20 cells were seeded in 10 cm plates (1.5 × 10⁶ cells/plate) and incubated at 37°C with 5% CO₂ for 24 h. Subsequently, the cells were treated with different compounds at a concentration of 2.5 µM for 24 h. After treatment, the cells were collected by centrifugation and fixed in cold 70% ethanol for 1 h at 4°C. The cells were then washed, collected by centrifugation, and treated with RNase A (100 μg/mL, Sigma‐Aldrich) for 30 min at 37°C, followed by staining with propidium iodide (50 μg/mL) for 15 min at 37°C. Finally, the percentages of cells in each phase of the cell cycle were determined using FACSCalibur flow cytometry (BD Biosciences—San Jose, CA, USA). Cell‐cycle distribution was analyzed using ModFit LT V3.3 software.

GNP15 = test: Resazurin cellular growth inhibition, GNP15; format: cell-based; details: 72 hours, triplicate; read-out: IC50 (nM, Cellular growth inhibition) GNP15 (supplement)
Procedure: as §4

[6] = test system: MKN‐45 (gastric carcinoma) cells; details: cited from earlier work
[7] = test system: stomach carcinoma cell line (NUGC3); design: method as in PMID 15293996, PMID 23237054; details: cited from earlier work
[8] = 72 h, mean ± SD, n = 3, read-out: IC50 (nM) CAL‐27
[9] = 72 hours, triplicate, read-out: IC50 (nM, Cellular growth inhibition) CAL-27 (supplement)
[10] = 72 h, mean ± SD, n = 3, read-out: IC50 (nM) BT‐20
[11] = 72 hours, triplicate, read-out: IC50 (nM, Cellular growth inhibition) BT-20 (supplement)
[12] = 72 h, mean ± SD, n = 3, read-out: IC50 (nM) HGC‐27
[13] = 72 hours, triplicate, read-out: IC50 (nM, Cellular growth inhibition) HGC-27 (supplement)

Compound | IC50 (CAL‐27 (oral carcinoma); [8]) [nM] | IC50 (CAL‐27 (oral carcinoma); [9]) [nM] | IC50 (BT‐20 (breast carcinoma); [10]) [nM] | IC50 (BT‐20 (breast carcinoma); [11]) [nM] | IC50 [1, 12] [nM] | IC50 [1, 13] [nM] | IC50 (tubulin [2]) [µM] | growth inhibitory activity against NUGC3 [7] | also measured
COc1ccc(N(C)c2nc(C)nc3ccccc23)cc1 [Verubulin, reference compound] | 2 ± 0.3 | 3 ± 0.4 | 5 ± 0.7 | 2 ± 0.3 | 3 ± 0.4 | 5 ± 0.7 | 3.2 |  | IC50 (tubulin [3]): 3200 ± 700 nM
COc1ccc2c(C(=O)c3cc(OC)c(OC)c(OC)c3)ccn2c1 [Compound 7f, (6‐methoxyindolizin‐1‐yl)(3,4,5‐trimethoxyphenyl)methanone] | 105 ± 21 | 475 ± 105 | 111 ± 28 | 105 ± 21 | 475 ± 105 | 111 ± 28 | 14.8 |  | inhibition at 50 µM (CAL‐27 (oral carcinoma); 72 h, mean ± SD, n = 3, read-out: % Cellular growth inhibition (at 50 µM) CAL‐27): 58 ± 1.3%; inhibition at 50 µM (BT‐20 (breast carcinoma); 72 h, mean ± SD, n = 3, read-out: % Cellular growth inhibition (at 50 µM) BT‐20): 43 ± 0.8%; inhibition at 50 µM ([1]; 72 h, mean ± SD, n = 3, read-out: % Cellular growth inhibition (at 50 µM) HGC‐27): 43 ± 0.7%; IC50 [4]: > 50000 nM; cell‐cycle distribution [5]: significant accumulation of cells in the G2/M phase; IC50 (GNP15): > 50000 nM; IC50 ([6]; MKN‐45 gastric cancer cells): 80 nM
CC(=O)O[C@H]1C(=O)[C@@]2(C)[C@H]([C@H](OC(=O)c3ccccc3)[C@]3(O)C[C@H](OC(=O)[C@H](O)[C@@H](NC(=O)c4ccccc4)c4ccccc4)C(C)=C1C3(C)C)[C@]1(OC(C)=O)CO[C@@H]1C[C@@H]2O [Paclitaxel, reference compound] | 3 ± 0.6 | 5 ± 1.4 | 45 ± 7 | 2 ± 0.1 | 48 ± 16 | 4 ± 1.1 | 8.2 |  | inhibition at 2 µM (CAL‐27 (oral carcinoma); 2 μM, 72 h, mean ± SD, read-out: % Cellular growth inhibition CAL‐27, positive control): 54 ± 1.2%; inhibition at 50 µM (CAL‐27 (oral carcinoma); 72 hours, triplicate, read-out: % Cellular growth inhibition (at 50 µM) CAL-27 (supplement)): 54 ± 1.2%; inhibition at 2 µM (BT‐20 (breast carcinoma); 2 μM, 72 h, mean ± SD, read-out: % Cellular growth inhibition BT‐20, positive control): 50 ± 1%; inhibition at 50 µM (BT‐20 (breast carcinoma); 72 hours, triplicate, read-out: % Cellular growth inhibition (at 50 µM) BT-20 (supplement)): 50 ± 1%; inhibition at 2 µM ([1]; 2 μM, 72 h, mean ± SD, read-out: % Cellular growth inhibition HGC‐27, positive control): 46 ± 1.8%; inhibition at 50 µM ([1]; 72 hours, triplicate, read-out: % Cellular growth inhibition (at 50 µM) HGC-27 (supplement)): 46 ± 1.8%; effect on tubulin polymerization curves (RFU) (tubulin [2]; compounds 5 µM, vs control and paclitaxel): promoted rapid and sustained polymerization
COc1ccc2c(C(=O)c3cc(OC)c(OC)c(OC)c3)c[nH]c2c1 [BPR0L075, reference compound] | 2 ± 0.1 | 48 ± 16 | 4 ± 1.1 | 3 ± 0.6 | 5 ± 1.4 | 45 ± 7 |  | demonstrated growth inhibitory activity | fold improvement in antiproliferative activity over combretastatin A‐4 ([6]; MKN‐45 cells): > 10 fold
COc1ccc(/C=C\c2cc(OC)c(OC)c(OC)c2)cc1O [Combretastatin A-4, combretastatin A‐4] |  |  |  |  |  |  |  | no appreciable effect | 
